Patent US20070142352A1, “Pteridinone Derivatives as Modulators of Chemokine Receptor Activity” (ASTRAZENECA AB, priority 2001, published 2007)

| Structure (SMILES) | melting point [°C] |
| --- | --- |
| C[C@H](CO)Nc1nc(SCc2cccc(F)c2F)nc2[nH]c(=O)c(NCCO)nc12 [Example 1, 2-[[(2,3-difluorophenyl)methyl]thio]-6-[(2-hydroxyethyl)amino]-4-[[(1R)-2-hydroxy-1-methylethyl]amino]-7(8H)-pteridinone] | 197 to 199 |
| C[C@H](CO)Nc1nc(SCc2cccc(F)c2F)nc2[nH]c(=O)c(NCc3ccccc3)nc12 [Example 2, 2-[[(2,3-difluorophenyl)methyl]thio]-4-[[(1R)-2-hydroxy-1-methylethyl]amino]-6-[(phenylmethyl)amino]-7(8H)-pteridinone] | 80 to 100 |
